# Source: patent US10596151B2, “Methods and pharmaceutical compositions for reducing arterial stiffness with a combination of a therapeutic agent blocking the angiotensin receptor and a therapeutic agent inhibiting the NEP enzyme” (Novartis AG, priority 2015, dated 2020)
# Marks after values point to notes of the source that are not given here.
# What was measured:
# [1] = test system: elderly patients (≥60 years) with essential hypertension; assay: […] study: carotid-femoral aortic pulse wave velocity (SphygmoCor X-CEL); type: in vivo, human; settings: for Change from baseline to 12 weeks, PWV / Change from baseline to 52 weeks, PWV: pulse wave velocity; for Change from baseline to 12 weeks, PWV: Week 12 endpoint, n = 192 LCZ696, n = 196 olmesartan; for Change from baseline to 52 weeks, PWV: week 52 endpoint, n = 199 both treatments
# Description: In the context of the present invention PWV is measured as aortic PWV=aPWV. One system to measure aPWV is the SphygmoCor X-CEL system which measures the carotid-femoral aPWV, as the speed of the arterial pressure waveform as it travels through the descending aorta to the femoral artery, which is detected from simultaneously measured carotid and femoral arterial pulses. The carotid pulse is detected by applanation tonometry using a high-fidelity pressure transducer (Millar Instruments, Houston, Tex.), while the femoral pulse is detected using a partially inflated blood pressure cuff wrapped around the upper thigh. The distance travelled by the pulse wave is captured by making physical measurements on the body surface according to the manufacturer's recommendations. […] [Butlin M, Qasem A, Avolio A P. Estimation of central aortic pressure waveform features derived from the brachial cuff volume displacement waveform. Conf Proc IEEE Eng Med Biol Soc 2012; 2012:2591-4]
# (§1) The study enrolled patient from 5 Dec. 2012 to 8 Apr. 2015.
# The SphygmoCor X-CEL system also measures the carotid-femoral aPWV, as the speed of the arterial pressure waveform as it travels through the descending aorta to the femoral artery, which is detected from simultaneously measured carotid and femoral arterial pulses. The carotid pulse is detected by applanation tonometry using a high-fidelity pressure transducer (Millar Instruments, Houston, Tex.), while the femoral pulse is detected using a partially inflated blood pressure cuff wrapped around the upper thigh. The distance traveled by the pulse wave is captured by making physical measurements on the body surface according to the manufacturer's recommendations.
# [2] = test system: elderly patients (≥60 years) with essential hypertension; assay: […] study: mean sitting (brachial) blood pressure and pulse pressure; type: in vivo, human; settings: for Change from baseline to 12 weeks, msDBP / Change from baseline to 52 weeks, msDBP: mean sitting diastolic BP; for Change from baseline to 12 weeks, msDBP / Change from baseline to 52 weeks, msDBP / Change from baseline to 12 weeks, msPP / Change from baseline to 52 weeks, msPP / Change from baseline to 12 weeks, msSBP / Change from baseline to 52 weeks, msSBP: mean; for Change from baseline to 12 weeks, msMAP / Change from baseline to 52 weeks, msMAP: mean sitting mean arterial pressure; for Change from baseline to 12 weeks, msPP / Change from baseline to 52 weeks, msPP: mean sitting pulse pressure; for Change from baseline to 12 weeks, msSBP / Change from baseline to 52 weeks, msSBP: mean sitting systolic BP
# Source text: as §1
# Superiority testing is also planned for the key secondary efficacy assessment, i.e. the reduction in mean central aortic PP (CAPP) after 12 weeks of treatment, and other secondary efficacy assessments such as mean CASP and CAPP after 52 weeks of treatment. Mean aPWV, msSBP, msDBP, msPP, mean ambulatory (ma) BP, maPP, and MAP will also be measured after 12 and 52 weeks of treatment.
# [3] = test system: elderly patients (≥60 years) with essential hypertension; assay: […] study: 24-hour ambulatory brachial and central blood pressure (Mobil-O-Graph); type: in vivo, human; settings: for Change from baseline to 12 weeks, macDBP / Change from baseline to 52 weeks, macDBP: mean ambulatory central diastolic BP; for Change from baseline to 12 weeks, macDBP / Change from baseline to 52 weeks, macDBP / Change from baseline to 12 weeks, macMAP / Change from baseline to 52 weeks, macMAP / Change from baseline to 12 weeks, macPP / Change from baseline to 52 weeks, macPP / Change from baseline to 12 weeks, maMAP / Change from baseline to 52 weeks, maMAP: mean; for Change from baseline to 12 weeks, macMAP / Change from baseline to 52 weeks, macMAP: mean ambulatory central mean arterial pressure; for Change from baseline to 12 weeks, macPP / Change from baseline to 52 weeks, macPP: mean ambulatory central pulse pressure; for Change from baseline to 12 weeks, macSBP / Change from baseline to 52 weeks, macSBP: mean ambulatory central systolic BP; for Change from baseline to 12 weeks, maDBP / Change from baseline to 52 weeks, maDBP: mean ambulatory diastolic BP; for Change from baseline to 12 weeks, maMAP / Change from baseline to 52 weeks, maMAP: mean ambulatory mean arterial pressure; for Change from baseline to 12 weeks, maPP / Change from baseline to 52 weeks, maPP: mean ambulatory pulse pressure; for Change from baseline to 12 weeks, maSBP / Change from baseline to 52 weeks, maSBP: mean ambulatory systolic BP
# Source text: as §1
# The 24-hour maCAP and maPWA will be monitored using the oscillometric device, Mobil-0-Graph (IEM, Stolberg, Germany) with integrated ARC solver algorithms (Austrian Institute of Technology, Vienna, Austria). The traditional Mobil-O-Graph ambulatory blood pressure monitoring (ABPM) device has been available for more than a decade and through several product generations.24-27 The actual blood pressure measuring unit was validated according to the British Hypertension Society (BHS) and the European Society of Hypertension (ESH) recommendations.24,26 The method equipped with a GTF to derive aortic pressure waveforms28 is based on brachial readings acquired in the course of the conventional pressure measurement at diastolic level.
# During the signal acquisition procedure, the received raw signals are separated into single waves and checked for their plausibility by means of extreme values and corresponding wavelengths using a cross-correlation approach. Poor waveforms are removed from further processing. After applying the GTF to each single waveform, the procedure is repeated.
# With respect to legal issues, the Mobil-O-Graph maPWA monitor with integrated ARC solver algorithms holds approvals from CE, FDA, and JPAL (amongst others).
# [4] = test system: elderly patients (≥60 years) with essential hypertension; assay: PARAMETER study: safety and tolerability assessments
# Source text: The inclusion criteria in the study was designed to enroll patients which met the profile of elderly patients with systolic hypertension and a wide pulse pressure, a characteristic reflective of large artery (aortic) stiffness. […] The study enrolled patient from 5 Dec. 2012 to 8 Apr. 2015.
# This was a 52-week study, involving 50 centers from 12 countries (across Europe, South America, Asia and the United States). […] After 12 weeks, patients with uncontrolled BP (msSBP>140 mmHg and/or mean sitting diastolic blood pressure [msDBP]>90 mmHg) were allowed the use of add-on antihypertensives (amlodipine [2.5-5.0 mg] and then hydrochlorothiazide [6.25-25.0 mg]) as needed, at an interval of 4 weeks up to Week 24.
# Safety and tolerability assessments include regular monitoring and recording of all adverse events (AEs) and concomitant medications or significant non-drug therapies. Evaluations of routine blood chemistries, blood counts with white cell differential and urine analyses, physical examinations, electrocardiograms (ECGs), and monitoring of vital signs will be performed at regular intervals.
# [5] = LCZ696 regimen vs olmesartan regimen, 52 weeks
# [6] = LCZ696 regimen vs olmesartan regimen, 12 weeks, P < 0.001
smiles,measurement,setting,value
"CCCc1nc(C(C)(C)O)c(C(=O)O)n1Cc1ccc(-c2ccccc2-c2nnn[nH]2)cc1 [Olmesartan, reference compound]","Change from baseline to 12 weeks, PWV",[1],−0.6
same,"Change from baseline to 52 weeks, PWV",[1],−0.8
same,"Change from baseline to 12 weeks, msDBP",[2]; 12 weeks,−5.2 mmHg
same,"Change from baseline to 52 weeks, msDBP",[2]; 52 weeks,−8.5 mmHg
same,"Change from baseline to 12 weeks, msMAP",[2]; 12 weeks,−8.6 mmHg
same,"Change from baseline to 52 weeks, msMAP",[2]; 52 weeks,−12.4 mmHg
same,"Change from baseline to 12 weeks, msPP",[2]; 12 weeks,−4.5 mmHg
same,"Change from baseline to 52 weeks, msPP",[2]; 52 weeks,−7.6 mmHg
same,"Change from baseline to 12 weeks, msSBP",[2]; 12 weeks,−9.7 mmHg
same,"Change from baseline to 52 weeks, msSBP",[2]; 52 weeks,−16.0 mmHg
same,"Change from baseline to 12 weeks, macDBP",[3]; 12 weeks,−5.8 mmHg
same,"Change from baseline to 52 weeks, macDBP",[3]; 52 weeks,−9.1 mmHg
same,"Change from baseline to 12 weeks, macMAP",[3]; 12 weeks,−6.75 mmHg
same,"Change from baseline to 52 weeks, macMAP",[3]; 52 weeks,−10.6 mmHg
same,"Change from baseline to 12 weeks, macPP",[3]; 12 weeks,−2.9 mmHg
same,"Change from baseline to 52 weeks, macPP",[3]; 52 weeks,−4.6 mmHg
same,"Change from baseline to 12 weeks, macSBP",[3]; 12 weeks,−8.7 mmHg
same,"Change from baseline to 52 weeks, macSBP",[3]; 52 weeks,−13.7 mmHg
same,"Change from baseline to 12 weeks, maDBP",[3]; 12 weeks,−5.5 mmHg
same,"Change from baseline to 52 weeks, maDBP",[3]; 52 weeks,−8.4 mmHg
same,"Change from baseline to 12 weeks, maMAP",[3]; 12 weeks,−7.1 mmHg
same,"Change from baseline to 52 weeks, maMAP",[3]; 52 weeks,−11.1 mmHg
same,"Change from baseline to 12 weeks, maPP",[3]; 12 weeks,−3.7 mmHg
same,"Change from baseline to 52 weeks, maPP",[3]; 52 weeks,−5.9 mmHg
same,"Change from baseline to 12 weeks, maSBP",[3]; 12 weeks,−9.1 mmHg
same,"Change from baseline to 52 weeks, maSBP",[3]; 52 weeks,−14.3 mmHg
same,percentage of patients who discontinued the study,"[4]; human, in vivo, 52 weeks",18.7%
same,percentage of patients who discontinued the study due to an AE,"[4]; human, in vivo, 52 weeks",5.3%
same,percentage of patients with AEs,"[4]; human, in vivo, 52 weeks",53.8%
same,percentage of patients with SAEs,"[4]; human, in vivo, 52 weeks",5.8%
"CCCCC(=O)N(Cc1ccc(-c2ccccc2-c2nn[n-]n2)cc1)C(C(=O)[O-])C(C)C.CCCCC(=O)N(Cc1ccc(-c2ccccc2-c2nn[n-]n2)cc1)C(C(=O)[O-])C(C)C.CCOC(=O)C(C)CC(Cc1ccc(-c2ccccc2)cc1)NC(=O)CCC(=O)[O-].CCOC(=O)C(C)CC(Cc1ccc(-c2ccccc2)cc1)NC(=O)CCC(=O)[O-].O.O.O.O.O.[Na+].[Na+].[Na+].[Na+].[Na+].[Na+] [LCZ696, trisodium [3-((1S,3R)-1-biphenyl-4-ylmethyl-3-ethoxycarbonyl-1-butylcarbamoyl) propionate-(S)-3′-methyl-2′-(pentanoyl{2″-(tetrazol-5-ylate)biphenyl-4′-ylmethyl}amino)butyrate]hemipentahydrate]","Between-treatment difference, PWV, 12 weeks","[1]; LCZ696 regimen vs olmesartan regimen, 12 weeks",−0.1 (0.17)*
same,"Between-treatment difference, PWV, 52 weeks",[1]; [5],−0.1 (0.18)
same,reduction of PWV in subgroup of patients with high baseline PWV,"[1]; ad-hoc analysis, vs olmesartan regimen, both Week 12 and 52",tended to reduce PWV to a greater extent than olmesartan regimen
same,difference in carotid-femoral PWV between the two regimens,"[1]; both Week 12 and 52, LCZ696 vs olmesartan regimen",no significant difference
same,"Change from baseline to 12 weeks, PWV",[1],−0.7
same,"Change from baseline to 52 weeks, PWV",[1],−0.8
same,"Between-treatment difference, msMAP, 12 weeks",[2]; [6],−3.6 (0.95)* mmHg
same,"Between-treatment difference, msMAP, 52 weeks",[2]; [5],−1.5 (0.89) mmHg
same,"Change from baseline to 12 weeks, msDBP",[2]; 12 weeks,−5.3 mmHg
same,"Change from baseline to 52 weeks, msDBP",[2]; 52 weeks,−8.1 mmHg
same,"Change from baseline to 12 weeks, msMAP",[2]; 12 weeks,−12.2 mmHg
same,"Change from baseline to 52 weeks, msMAP",[2]; 52 weeks,−13.9 mmHg
same,"Change from baseline to 12 weeks, msPP",[2]; 12 weeks,−8.0 mmHg
same,"Change from baseline to 52 weeks, msPP",[2]; 52 weeks,−9.1 mmHg
same,"Change from baseline to 12 weeks, msSBP",[2]; 12 weeks,−13.3 mmHg
same,"Change from baseline to 52 weeks, msSBP",[2]; 52 weeks,−17.2 mmHg
same,"Between-treatment difference, maDBP, 12 weeks",[3]; [6],−2.0 (0.51)* mmHg
same,"Between-treatment difference, maPP, 12 weeks",[3]; [6],−2.1 (0.49)* mmHg
same,"Between-treatment difference, maSBP, 12 weeks",[3]; [6],−4.1 (0.87)* mmHg
same,"Between-treatment difference, macSBP, 12 weeks",[3]; [6],−3.4 (0.84)* mmHg
same,"Between-treatment difference, maDBP, 52 weeks",[3]; [5],−0.4 (0.48) mmHg
same,"Between-treatment difference, maPP, 52 weeks",[3]; [5],0.6 (0.50) mmHg
same,"Between-treatment difference, maSBP, 52 weeks",[3]; [5],0.2 (0.82) mmHg
same,"Between-treatment difference, macSBP, 52 weeks",[3]; [5],0.6 (0.79) mmHg
same,24-hour ambulatory SBP compared to olmesartan,[3]; after 12-week monotherapy,lowered 24-hour ambulatory SBP compared to olmesartan
same,"Change from baseline to 12 weeks, macDBP",[3]; 12 weeks,−7.5 mmHg
same,"Change from baseline to 52 weeks, macDBP",[3]; 52 weeks,−9.0 mmHg
same,"Change from baseline to 12 weeks, macMAP",[3]; 12 weeks,−9.0 mmHg
same,"Change from baseline to 52 weeks, macMAP",[3]; 52 weeks,−10.33 mmHg
same,"Change from baseline to 12 weeks, macPP",[3]; 12 weeks,−4.4 mmHg
same,"Change from baseline to 52 weeks, macPP",[3]; 52 weeks,−4.1 mmHg
same,"Change from baseline to 12 weeks, macSBP",[3]; 12 weeks,−12.1 mmHg
same,"Change from baseline to 52 weeks, macSBP",[3]; 52 weeks,−13.0 mmHg
same,"Change from baseline to 12 weeks, maDBP",[3]; 12 weeks,−7.4 mmHg
same,"Change from baseline to 52 weeks, maDBP",[3]; 52 weeks,−8.8 mmHg
same,"Change from baseline to 12 weeks, maMAP",[3]; 12 weeks,−10.0 mmHg
same,"Change from baseline to 52 weeks, maMAP",[3]; 52 weeks,−11.2 mmHg
same,"Change from baseline to 12 weeks, maPP",[3]; 12 weeks,−5.8 mmHg
same,"Change from baseline to 52 weeks, maPP",[3]; 52 weeks,−5.3 mmHg
same,"Change from baseline to 12 weeks, maSBP",[3]; 12 weeks,−13.2 mmHg
same,"Change from baseline to 52 weeks, maSBP",[3]; 52 weeks,−14.1 mmHg
same,percentage of patients who discontinued the study,[4]; 52-week study,19.7%
same,percentage of patients who discontinued the study due to an AE,[4]; 52-week study,6.6%
same,percentage of patients with AEs,[4]; 52-week study,57.6%
same,percentage of patients with SAEs,[4]; 52-week study,7.0%
same,tolerability of the regimen,[4]; 52-week study,well tolerated
